Source: patent US6075057A, “Inhibition of carbohydrates metabolism by quinone compounds” (priority 1997, dated 2000)

Columns and labels:
[1] = target: T1, β-galactosidase (EC 3.2.1.23, grade XI) (Aspergillus oryzae, UniProt Q2UCU3); assay: Initial screening assay for enzyme inhibition, β-galactosidase (Asp. oryzae); format: biochemical; conditions: 2% MeOH, read-out: % Enzyme activity relative to control
T1 construct: purchased Sigma; host or cells: Aspergillus oryzae
Description: (§1) Optically pure enantiomers of avarol were synthetically prepared. A survey of potential inhibitory activity by avarol against twelve glycosidases was performed according to general procedures^15 (see experimental section). The enzymes tested and their biological sources are listed in Table 1 along with any pertinent references found for a given enzyme. In order to determine a working range for enzyme and substrate concentrations in which the rate of product formation was linear and steady-state kinetics were applicable, initial rate studies with varying substrate concentrations were performed in the absence of inhibitor. The Michaelis constants (Km 's) and Vmax values for these enzymes were determined from these plots using standard graphical analysis procedures as described in ref. 17 and are summarized in Table 2.
(§2) Enzymatic Assays. Piperazine-N,N'-bix-(2-ethanesulfonic acid)(PIPES) buffer, enzymes, and substrates were purchased from Sigma and used as received. Buffer solutions and enzymes (desiccated) were stored at 4° C. p-Nitrophenyl glycoside substrates were stored desiccated at -20° C. Enzyme inhibition assays and initial rate studies were carried out with the appropriate p-nitrophenyl glycoside substrates following the general procedure of Kajimoto et al., J. Am. Chem. Soc. 113:6187 (1991) with the exception that amyloglucosidase (EC 3.2,1.3, Asp. niger) was assayed following the method of Saul et al., Arch. Biochem. Biophys. 221:593 (1983). Assays were performed in a Perkin-Elmer Lambda Array 3840 Spectrophotometer using the built-in drive method (resolution=0.25, average=8) in a quartz cuvette (1 cm pathlength). Background absorption spectra were acquired using millipore filtered water as medium. Steady-state kinetics were maintained by adjusting the amount of enzyme used in each assay so that less than 10% of the substrate was converted to product for the duration of the reaction. Reactions were monitored at 400 nm (the absorbance of the p-nitrophenol product, ε=3204.5 M^-1 cm^-1) for a given amount of time and the initial rates were calculated and expressed as μmols p-nitrophenol formed per unit enzyme per second. Absportion readings for control reactions were corrected for the small baseline absorbance at time zero. Small discrepancies between time zero absorbance readings in a given inhibition assay and a time zero reading in a control assay were used to correct the overall absorbance change calculated in the inhibition assay. […]
(§3) Typical assay: A 1.5-mL quartz cuvette was charged with 940 μL of PIPES-NaOAc buffer solution (pH 6.56), 20 μL of inhibitor solution, and 20 μL of enzyme solution. […] The reaction was monitored at 400 nm for 1 min and the absorbance change was used to calculate the initial hydrolysis rate. […]

[2] = tested on: β-N-acetylglucosaminidase (EC 3.2.1.30); assay: Initial screening assay for enzyme inhibition, β-N-acetylglucosaminidase; format: biochemical, bovine kidney; conditions: 2% MeOH
Description: as §1, §2, §3

[3] = tested on: β-mannosidase (EC 3.2.1.25); assay: Initial screening assay for enzyme inhibition, β-mannosidase; format: biochemical, snail; conditions: 2% MeOH
Description: as §1, §2, §3

[4] = target: T2, β-galactosidase (EC 3.2.1.23) (Aspergillus niger, UniProt P29853); assay: Initial screening assay for enzyme inhibition, β-galactosidase (Asp. niger); format: biochemical; conditions: 2% MeOH, read-out: % Enzyme activity relative to control
T2 construct: purchased Sigma; host or cells: Aspergillus niger
Description: as §1, §2, §3

[5] = target: T3, α-mannosidase (EC 3.2.1.24) (Canavalia ensiformis, UniProt C0HJB3); assay: Initial screening assay for enzyme inhibition, α-mannosidase; format: biochemical, jack beans; conditions: for remaining activity at 10 µM: α-mannosidase, 10 μM inhibitor, 2% MeOH, read-out: % Enzyme activity relative to control
T3 construct: 66 and 44 kDa subunits cleaved from one precursor
T3 sequence (C0HJB3 1-981): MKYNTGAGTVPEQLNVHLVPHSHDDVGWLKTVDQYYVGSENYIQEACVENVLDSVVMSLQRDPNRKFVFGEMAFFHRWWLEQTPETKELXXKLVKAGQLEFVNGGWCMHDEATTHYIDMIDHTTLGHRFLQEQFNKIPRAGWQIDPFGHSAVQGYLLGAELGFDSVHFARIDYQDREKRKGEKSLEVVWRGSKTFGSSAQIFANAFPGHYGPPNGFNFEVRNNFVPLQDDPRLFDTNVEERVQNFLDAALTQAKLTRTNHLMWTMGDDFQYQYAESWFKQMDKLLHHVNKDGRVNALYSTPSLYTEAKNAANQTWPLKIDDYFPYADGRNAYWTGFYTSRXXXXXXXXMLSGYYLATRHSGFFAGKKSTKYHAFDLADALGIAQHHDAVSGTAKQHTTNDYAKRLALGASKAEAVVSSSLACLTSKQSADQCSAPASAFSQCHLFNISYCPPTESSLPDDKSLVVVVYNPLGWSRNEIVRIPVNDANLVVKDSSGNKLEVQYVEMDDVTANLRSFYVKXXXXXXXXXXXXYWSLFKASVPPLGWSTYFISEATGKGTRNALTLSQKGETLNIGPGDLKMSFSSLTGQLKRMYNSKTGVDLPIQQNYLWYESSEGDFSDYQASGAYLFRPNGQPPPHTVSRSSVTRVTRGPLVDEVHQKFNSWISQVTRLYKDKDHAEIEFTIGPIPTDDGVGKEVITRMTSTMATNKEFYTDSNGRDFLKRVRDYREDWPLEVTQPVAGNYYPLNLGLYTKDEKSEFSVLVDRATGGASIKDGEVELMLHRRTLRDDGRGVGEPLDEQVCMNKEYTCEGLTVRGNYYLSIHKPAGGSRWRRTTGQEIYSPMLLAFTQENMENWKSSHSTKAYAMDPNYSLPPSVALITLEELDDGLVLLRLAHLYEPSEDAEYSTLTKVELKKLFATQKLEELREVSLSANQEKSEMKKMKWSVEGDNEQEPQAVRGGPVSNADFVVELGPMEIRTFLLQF
Description: as §1
(§4) Initial screening assays with the enantiomeric avarols indicated significant activity by these compounds against only two of the twelve enzymes studies. […] This can occur when the two species compete for the same site or nearby sites on the enzyme. The equilibria that describe competitive inhibition are shown below. [drawing 3]
Enzymatic Assays. […] Reactions were monitored at 400 nm (the absorbance of the p-nitrophenol product, ε=3204.5 M^-1 cm^-1) for a given amount of time and the initial rates were calculated and expressed as μmols p-nitrophenol formed per unit enzyme per second. Absportion readings for control reactions were corrected for the small baseline absorbance at time zero. Small discrepancies between time zero absorbance readings in a given inhibition assay and a time zero reading in a control assay were used to correct the overall absorbance change calculated in the inhibition assay. […]
as §3

[6] = target: T4, α-glucosidase (EC 3.2.1.20, type IV) (Saccharomyces cerevisiae, UniProt P53341); assay: Initial screening assay for enzyme inhibition, α-glucosidase; format: biochemical, brewer's yeast; conditions: for remaining activity at 10 µM: α-glucosidase, 10 μM inhibitor, 2% MeOH, read-out: % Enzyme activity relative to control
T4 construct: purchased Sigma; host or cells: brewer's yeast
Description: as §1, §4
(§5) Enzymatic Assays. Piperazine-N,N'-bix-(2-ethanesulfonic acid)(PIPES) buffer, enzymes, and substrates were purchased from Sigma and used as received. Buffer solutions and enzymes (desiccated) were stored at 4° C. p-Nitrophenyl glycoside substrates were stored desiccated at -20° C. Enzyme inhibition assays and initial rate studies were carried out with the appropriate p-nitrophenyl glycoside substrates following the general procedure of Kajimoto et al., J. Am. Chem. Soc. 113:6187 (1991) with the exception that amyloglucosidase (EC 3.2,1.3, Asp. niger) was assayed following the method of Saul et al., Arch. Biochem. Biophys. 221:593 (1983). Assays were performed in a Perkin-Elmer Lambda Array 3840 Spectrophotometer using the built-in drive method (resolution=0.25, average=8) in a quartz cuvette (1 cm pathlength). Background absorption spectra were acquired using millipore filtered water as medium. Steady-state kinetics were maintained by adjusting the amount of enzyme used in each assay so that less than 10% of the substrate was converted to product for the duration of the reaction. Reactions were monitored at 400 nm (the absorbance of the p-nitrophenol product, ε=3204.5 M^-1 cm^-1) for a given amount of time and the initial rates were calculated and expressed as μmols p-nitrophenol formed per unit enzyme per second. Absportion readings for control reactions were corrected for the small baseline absorbance at time zero. Small discrepancies between time zero absorbance readings in a given inhibition assay and a time zero reading in a control assay were used to correct the overall absorbance change calculated in the inhibition assay. Inhibitors were dissolved in uv-grade absolute methanol.
(§6) Typical assay: A 1.5-mL quartz cuvette was charged with 940 μL of PIPES-NaOAc buffer solution (pH 6.56), 20 μL of inhibitor solution, and 20 μL of enzyme solution. The result was mixed well and then equilibrated at 37° C. for two minutes. 20 μL of the appropriate p-nitrophenyl glycoside solution was then added to initiate the reaction with rapid mixing. The reaction was monitored at 400 nm for 1 min and the absorbance change was used to calculate the initial hydrolysis rate. Lineweaver-Burk plots were constructed by repeating this procedure with varying substrate and inhibitor concentrations.

[7] = target: T5, α-D-glucosidase (brewer's yeast) (Saccharomyces cerevisiae, UniProt P53341); assay: IC50 determination against α-D-glucosidase; format: biochemical
T5 construct: purchased Sigma; host or cells: brewer's yeast
Description: as §2, with “Background absorption spectra were acquired using millipore filtered water as medium. Steady-state kinetics were maintained by adjusting the amount of enzyme used in each assay so that less than 10% of the substrate was converted to product for the duration of the reaction.” left out

[8] = tested on: amyloglucosidase (EC 3.2.1.3); assay: Initial screening assay for enzyme inhibition, amyloglucosidase; format: biochemical, Aspergillus niger; conditions: amyloglucosidase, 2% MeOH
Description: as §1, §5, §6

[9] = target: T6, α-galactosidase (EC 3.2.1.22) (Coffea arabica, UniProt Q42656); assay: Initial screening assay for enzyme inhibition, α-galactosidase (green coffee beans); format: biochemical; conditions: α-galactosidase (green coffee beans), 2% MeOH, read-out: % Enzyme activity relative to control
T6 construct: purchased Sigma; host or cells: green coffee beans
Description: as §1, §2, §3

T4 sequence (P53341 whole entry): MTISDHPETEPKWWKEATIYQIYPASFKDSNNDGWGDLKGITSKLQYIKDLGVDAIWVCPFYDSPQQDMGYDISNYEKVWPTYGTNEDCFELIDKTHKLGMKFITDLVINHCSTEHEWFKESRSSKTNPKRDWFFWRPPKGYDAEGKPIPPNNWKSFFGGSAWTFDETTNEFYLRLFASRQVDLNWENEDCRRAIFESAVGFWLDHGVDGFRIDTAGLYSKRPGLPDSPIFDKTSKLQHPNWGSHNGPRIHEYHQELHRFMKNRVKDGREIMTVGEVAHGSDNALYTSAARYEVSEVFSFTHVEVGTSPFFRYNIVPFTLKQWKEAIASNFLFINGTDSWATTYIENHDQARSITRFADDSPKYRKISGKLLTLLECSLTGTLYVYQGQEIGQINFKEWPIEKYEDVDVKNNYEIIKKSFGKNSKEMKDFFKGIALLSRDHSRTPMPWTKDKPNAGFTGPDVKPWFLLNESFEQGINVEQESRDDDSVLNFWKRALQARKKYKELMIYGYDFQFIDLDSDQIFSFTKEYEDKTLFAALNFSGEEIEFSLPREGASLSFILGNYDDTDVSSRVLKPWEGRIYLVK
T1 sequence (Q2UCU3 19-1005): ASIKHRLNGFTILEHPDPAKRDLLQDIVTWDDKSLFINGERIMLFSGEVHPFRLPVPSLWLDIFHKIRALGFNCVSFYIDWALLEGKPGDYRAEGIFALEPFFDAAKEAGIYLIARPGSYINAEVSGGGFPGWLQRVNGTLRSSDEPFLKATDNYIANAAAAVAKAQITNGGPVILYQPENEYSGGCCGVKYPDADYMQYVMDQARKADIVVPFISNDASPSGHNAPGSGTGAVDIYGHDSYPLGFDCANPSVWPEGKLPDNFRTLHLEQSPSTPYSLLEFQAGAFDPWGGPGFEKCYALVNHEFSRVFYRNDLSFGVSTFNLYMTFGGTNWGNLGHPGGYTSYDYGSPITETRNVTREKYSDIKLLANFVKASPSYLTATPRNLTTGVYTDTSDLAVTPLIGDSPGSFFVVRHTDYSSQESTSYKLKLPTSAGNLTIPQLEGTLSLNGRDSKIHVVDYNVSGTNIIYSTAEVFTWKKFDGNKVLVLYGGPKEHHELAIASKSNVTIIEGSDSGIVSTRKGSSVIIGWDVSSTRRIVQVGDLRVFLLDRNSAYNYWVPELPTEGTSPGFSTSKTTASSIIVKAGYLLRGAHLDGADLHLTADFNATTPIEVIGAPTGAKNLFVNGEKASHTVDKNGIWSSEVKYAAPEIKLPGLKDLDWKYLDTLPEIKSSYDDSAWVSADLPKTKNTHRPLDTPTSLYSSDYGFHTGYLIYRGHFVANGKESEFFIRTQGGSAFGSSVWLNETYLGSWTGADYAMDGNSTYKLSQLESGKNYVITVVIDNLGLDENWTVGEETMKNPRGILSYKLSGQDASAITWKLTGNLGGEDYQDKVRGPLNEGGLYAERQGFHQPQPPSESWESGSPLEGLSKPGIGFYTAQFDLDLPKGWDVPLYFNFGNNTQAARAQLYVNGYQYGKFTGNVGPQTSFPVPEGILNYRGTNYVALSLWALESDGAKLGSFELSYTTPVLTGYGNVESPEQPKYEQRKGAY
T6 sequence (Q42656 16-378): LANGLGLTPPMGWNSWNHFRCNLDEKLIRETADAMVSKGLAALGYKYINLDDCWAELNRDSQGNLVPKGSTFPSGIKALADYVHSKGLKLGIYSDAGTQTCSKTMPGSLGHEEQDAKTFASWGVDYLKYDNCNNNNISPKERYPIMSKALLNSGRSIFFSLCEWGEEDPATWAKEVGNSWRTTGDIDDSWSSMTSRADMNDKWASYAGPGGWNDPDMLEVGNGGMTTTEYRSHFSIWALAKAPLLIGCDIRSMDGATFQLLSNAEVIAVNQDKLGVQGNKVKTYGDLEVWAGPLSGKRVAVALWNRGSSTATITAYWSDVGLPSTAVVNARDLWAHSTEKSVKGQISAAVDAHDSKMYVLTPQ
T2 sequence (P29853 20-1006): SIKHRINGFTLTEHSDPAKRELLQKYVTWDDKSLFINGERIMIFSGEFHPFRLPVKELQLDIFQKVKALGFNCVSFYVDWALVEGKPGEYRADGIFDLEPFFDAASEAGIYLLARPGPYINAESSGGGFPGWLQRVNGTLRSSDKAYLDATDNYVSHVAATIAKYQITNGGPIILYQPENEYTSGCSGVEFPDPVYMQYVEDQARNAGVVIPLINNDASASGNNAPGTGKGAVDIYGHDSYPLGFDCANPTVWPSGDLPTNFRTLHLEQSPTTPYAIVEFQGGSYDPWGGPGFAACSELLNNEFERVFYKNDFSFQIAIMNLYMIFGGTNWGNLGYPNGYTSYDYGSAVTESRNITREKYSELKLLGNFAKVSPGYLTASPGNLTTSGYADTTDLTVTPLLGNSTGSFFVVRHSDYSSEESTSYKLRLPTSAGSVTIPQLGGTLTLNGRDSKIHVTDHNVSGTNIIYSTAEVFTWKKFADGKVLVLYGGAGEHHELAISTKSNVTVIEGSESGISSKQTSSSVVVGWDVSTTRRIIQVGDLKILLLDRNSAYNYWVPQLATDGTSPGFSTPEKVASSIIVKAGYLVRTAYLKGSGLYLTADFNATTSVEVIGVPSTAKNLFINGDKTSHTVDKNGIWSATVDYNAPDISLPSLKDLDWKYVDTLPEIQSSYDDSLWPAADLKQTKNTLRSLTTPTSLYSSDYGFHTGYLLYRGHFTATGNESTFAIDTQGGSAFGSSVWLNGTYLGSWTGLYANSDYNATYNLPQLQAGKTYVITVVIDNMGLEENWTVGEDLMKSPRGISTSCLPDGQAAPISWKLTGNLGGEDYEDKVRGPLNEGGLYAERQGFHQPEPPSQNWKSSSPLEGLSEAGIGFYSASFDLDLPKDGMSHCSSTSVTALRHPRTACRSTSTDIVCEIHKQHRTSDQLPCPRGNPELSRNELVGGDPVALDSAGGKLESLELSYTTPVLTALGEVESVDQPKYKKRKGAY
T5 sequence (P53341 whole entry): as the sequence (P53341 whole entry) above

Structure (SMILES)	remaining activity at 40 µM ([1]; 40 μM inhibitor)	% Enzyme activity relative to control ([2]; 20 μM inhibitor)	% Enzyme activity relative to control ([3]; 40 μM inhibitor)	remaining activity at 40 µM ([4]; 40 μM inhibitor)	remaining activity at 10 µM [5]	remaining activity at 10 µM [6]	IC50 [7]	% Enzyme activity relative to control ([8]; 40 μM inhibitor)	remaining activity at 40 µM ([9]; 40 μM inhibitor)	remaining activity at 20 µM ([1]; 20 μM inhibitor)	% Enzyme activity relative to control ([2]; 10 μM inhibitor)	% Enzyme activity relative to control ([3]; 20 μM inhibitor)	remaining activity at 20 µM ([4]; 20 μM inhibitor)	activity versus naturally-occurring enantiomer, α-mannosidase (in words) ([5]; versus (+)-avarol)	activity versus naturally-occurring enantiomer, α-glucosidase (in words) ([6]; versus (+)-avarol)	% Enzyme activity relative to control ([8]; 20 μM inhibitor)	remaining activity at 20 µM ([9]; 20 μM inhibitor)
CC1=CCC[C@H]2[C@](C)(Cc3cc(O)ccc3O)[C@@H](C)CC[C@]12C [(+)-avarol, (+)-Avarol]	100%	102%	106%	104%	90%	63%	> 20 µM	113%	82%								
CC1=CCC[C@@H]2[C@@](C)(Cc3cc(O)ccc3O)[C@H](C)CC[C@@]12C [(-)-avarol]					47%	43%	7.6 µM			99%	89%	101%	111%	significantly more active than the naturally-occurring enantiomer	significantly more active than the naturally-occurring enantiomer	94%	83%
